# Activity calls are given as the source filed them. The calls are words filed in the database; no cut-off is given here. Where a SMILES comes first, the peptide text is derived from it.
# How the values were obtained:
# Adapter molecule crk [1] = molecular target: T1, Adapter molecule crk (Homo sapiens, UniProt P46108); test: Binding affinity to human c-CRK N-terminal SH3 domain expressed in Escherichia coli BL21 (DE3) by tryptophan fluorescence quenching assay
# Adapter molecule crk [2] = molecular target: T1, Adapter molecule crk; test: Binding affinity to recombinant human CRK-2 nSH3 domain (1 to 304 residues) expressed in Escherichia coli by NMR analysis
# Adapter molecule crk [3] = molecular target: T1, Adapter molecule crk; test: Binding affinity to recombinant human CRK-2 nSH3 domain (1 to 304 residues) expressed in Escherichia coli assessed as inhibition of interaction with Abl by measuring Abl-mediated CRK-2 phosphorylation at Y221 residue at 1 uM after 10 to 30 mins by PAGE analysis (reference value: 62%); parameters: scale not given: the % may be the effect or the level left
# Adapter molecule crk [4] = molecular target: T1, Adapter molecule crk; test: Binding affinity to recombinant human CRK-2 nSH3 domain (1 to 304 residues) expressed in Escherichia coli assessed as inhibition of Abl T315I mutant-mediated CRK-2 phosphorylation at Y221 residue at 1 uM after 10 to 30 mins by PAGE analysis
# Adapter molecule crk [5] = molecular target: T1, Adapter molecule crk; test: Binding affinity to recombinant human CRK-2 nSH3 domain (1 to 304 residues) expressed in Escherichia coli by tryptophan fluorescence quenching assay
# Adapter molecule crk [6] = molecular target: T1, Adapter molecule crk; test: Binding affinity to recombinant human CRK-2 nSH3 domain (1 to 304 residues) expressed in Escherichia coli at 25 degC by tryptophan fluorescence quenching assay
# Adapter molecule crk [7] = molecular target: T1, Adapter molecule crk; test: Ratio of Kd for recombinant human CRK-2 nSH3 domain (1 to 304 residues) expressed in Escherichia coli at 35 degC in presence of 1 M NaCl to Kd for recombinant human CRK-2 nSH3 domain (1 to 304 residues) expressed in Escherichia coli at 35 degC in presence of 80 mM NaCl
# T1 sequence (P46108 whole entry, the tested form may be a part): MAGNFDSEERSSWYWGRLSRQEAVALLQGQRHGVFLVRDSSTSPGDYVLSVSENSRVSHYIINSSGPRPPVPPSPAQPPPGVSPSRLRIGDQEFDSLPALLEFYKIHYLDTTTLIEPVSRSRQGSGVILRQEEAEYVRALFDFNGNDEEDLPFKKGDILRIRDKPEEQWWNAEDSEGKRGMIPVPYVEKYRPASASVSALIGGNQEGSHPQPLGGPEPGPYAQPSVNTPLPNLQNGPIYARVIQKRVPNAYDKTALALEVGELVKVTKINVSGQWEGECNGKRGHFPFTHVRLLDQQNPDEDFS
Kd (Adapter molecule crk [1]),Activity (Adapter molecule crk [2]),Activity (Adapter molecule crk [3]),inhibition (Adapter molecule crk [4]),Kd (Adapter molecule crk [5]),Kd (Adapter molecule crk [6]),Ratio (Adapter molecule crk [7]),SMILES
1.9 µM,Active,,,,,,CC(C)C[C@H](NC(=O)[C@H](C)NC(=O)[C@@H]1CCCN1C(=O)[C@@H]1CCCN1C(=O)[C@@H]1CCCN1)C(=O)N1CCC[C@H]1C(=O)N1CCC[C@H]1C(=O)N[C@@H](CCCCN)C(=O)N[C@@H](CCCCN)C(=O)N[C@@H](CCCNC(=N)N)C(=O)O
,,33%,inactive,,,,Cc1ccc(NC(=O)c2ccc(CN3CCN(C)CC3)cc2)cc1Nc1nccc(-c2cccnc2)n1
,Active,,,0.4 µM,,,CC(C)C[C@H](NC(=O)[C@H](C)NC(=O)[C@@H]1CCCN1C(=O)[C@@H]1CCCN1C(=O)[C@@H]1CCCN1C(=O)[C@H](CO)NC(=O)[C@H](CC(N)=O)NC(=O)[C@@H](N)CC(=O)O)C(=O)N1CCC[C@H]1C(=O)N[C@@H](CCCCN)C(=O)N[C@@H](CCCCN)C(=O)N[C@@H](CCCNC(=N)N)C(=O)N[C@@H](CCC(N)=O)C(=O)N[C@@H](CO)C(=O)N[C@@H](Cc1ccc(O)cc1)C(=O)O (H-DNSPPPALPKKRQSY-OH)
,Active,21%,Active,0.009 µM,0.009 µM,50,CC(C)C[C@H](NC(=O)[C@H](C)NC(=O)[C@@H]1CCCN1C(=O)[C@@H]1CCCN1C(=O)[C@@H](N)CO)C(=O)N1CCC[C@H]1C(=O)N[C@@H](CCCCN)C(=O)N[C@@H](CCCCN)C(=O)N[C@@H](CCCNC(=N)N)C(=O)N[C@@H](CCC(N)=O)C(=O)N[C@@H](CO)C(=O)N[C@@H](Cc1ccc(O)cc1)C(=O)N[C@@H](CCCNC(=N)N)C(=O)N[C@@H](CCCNC(=N)N)C(=O)O (H-SPPALPKKRQSYRR-OH)

# — ChEMBL document CHEMBL4257487, “Structure-guided design of a potent peptide inhibitor targeting the interaction between CRK and ABL kinase” (Medchemcomm, 2018)
